What was measured:
recombinant human DHODH = target: T1, recombinant human DHODH (Homo sapiens, UniProt Q02127); experiment: DHODH enzyme reaction inhibition test (DCIP-coupled assay); assay type: biochemical; conditions: recombinant human DHODH 0.175 μg/mL, DCIP absorbance 600 nm, 50 minutes, pH 8.0; read-out: Enzyme reaction inhibitory effect (IC50)
T1 construct: DHODH, 31-395aa, Human, His tag, E. coli, ATGP1615; His tag; purchased ATGen Co. Ltd. ATGP1615; host or cells: E. coli
Method: The DHODH enzyme assay was carried out with reference to “Benjamin Bader, Wolfgang Knecht, Markus Fries, and Monika Loffler, Expression, Purification, and Characterization of Histidine-Tagged Rat and Human Flavoenzyme Dihydroorotate Dehydrogenase, Protein Expression and Purification, 1998, 13, 414-422.”
The DHODH activity was evaluated using an enzyme assay system that is coupled with an assay in which a blue coloring agent 2,6-dichlorophenolindophenol (DCIP, available from MP Biomedicals, LLC, MP150118) is quenched. Purified recombinant human DHODH (DHODH, 31-395aa, Human, His tag, E. coli, ATGP1615) was purchased from ATGen Co. Ltd. The enzyme assay was carried out in a 384-well plate using a buffer solution containing 100 mmol/L Hepes (available from Dojindo Laboratories, 342-01375), 400 mmol/L NaCl (available from FUJIFILM Wako Pure Chemical Corporation, 191-01665), 10% Glycerol (available from FUJIFILM Wako Pure Chemical Corporation, 075-00616), 0.05% Triton X-100 (available from Sigma-Aldrich Co., LLC, T8787-100ML), 0.2 mmol/L Ubiquinone-10 (available from FUJIFILM Wako Pure Chemical Corporation, 216-00761), 0.1 mmol/L DHO (L-dihydroorotic acid, available from Sigma-Aldrich Co., LLC, D7128), 0.5% DMSO (dimethylsulfoxide, available from FUJIFILM Wako Pure Chemical Corporation, 047-29353), 0.175 μg/mL DHODH, and 0.12 mmol/L DCIP and having a pH adjusted to 8.0 by adding 5 mol/L potassium hydroxide (available from FUJIFILM Wako Pure Chemical Corporation, 168-21815). A test compound with a predetermined concentration was added using Biomek NX (available from Beckman Coulter Inc.), and the enzyme reaction was started by adding the substrate. The enzyme activity was assessed by measuring the decrease in DCIP absorbance (600 nm) for 50 minutes using an EnVision plate-reading spectrophotometer (available from PerkinElmer, Inc.).
The enzyme reaction inhibition rate at each test compound concentration was determined, and the 50% enzyme reaction inhibition concentration [IC50 (nmol/L)] was calculated using XLfit. Enzyme reaction inhibition rate (%)=(amount of luminescence in test compound-added well)/(amount of luminescence in DMSO-added well)×100
The abbreviations in the table have the following meanings. • A: IC50 value<10 nmol/L • B: 10 nmol/L≤IC50 value<100 nmol/L • C: 100 nmol/L≤IC50 value

[1] = tested on: human myeloid leukemia cell line HL60; experiment: Cell growth test, HL60 (CellTiter-Glo); assay type: cell-based; conditions: HL-60, 72 h, HL60 cells, 3 days, CellTiter-Glo luminescence, read-out: Cell growth inhibitory effect (GI50)
Method: The cell growth test was carried out using the human myeloid leukemia cell line HL60 (available from ATCC, CRL-240). As a culture medium of HL60 cells, RPMI 1640 (available from FUJIFILM Wako Pure Chemical Corporation, 189-02025) supplemented with 10% fetal bovine serum (available from Thermo Fisher Scientific, Inc., 10437-028), and 1% penicillin-streptomycin (10,000 U/mL, available from Thermo Fisher Scientific, Inc., 15140-122) was used. HL60 cells were seeded on a 384-well plate (available from Corning Inc., 4588) at a cell density of 1×10^3 cells/20 μL/well. After culturing overnight, 5 μL of the test compound having a predetermined concentration was added, and 3 days later, 25 μL of CellTiter-Glo (registered trademark) Luminescent Cell Viability Assay (available from Promega Corporation, G7573) was added, and then the amount of luminescence was measured using an EnVision plate reader (available from PerkinElmer, Inc.). Since the amount of luminescence is proportional to the intracellular concentration of adenosine triphosphate (ATP), the amount of luminescence was used as an indicator of the number of viable cells. The growth inhibitory concentration for each test compound concentration was calculated by the following expression.
The growth inhibition rate at each test compound concentration was determined, and the 50% growth inhibitory concentration [GI50 (nmol/L)] was calculated using XLfit. Growth inhibition rate (%)=(amount of luminescence in test compound-added well)/(amount of luminescence in DMSO-added well)×100
The abbreviations in the table have the following meanings. • A: GI50 value<100 nmol/L • B: 100 nmol/L≤GI50 value<1,000 nmol/L • C: 1,000 nmol/L≤GI50 value

HL60 subcutaneous tumor = experiment: In vivo drug efficacy test in cancer-bearing mouse model with subcutaneous transplantation of HL60; conditions: HL60 subcutaneous xenograft, female NOD/scid mice, oral 2.5 to 10 mg/kg once a day for 10 to 12 days
From the text: (Drug Efficacy Test in Cancer-Bearing Mouse Model with Subcutaneous Transplantation of HL60)
The human acute myeloid leukemia cell line HL60 (available from JCRB) was suspended in a mixture of RPMI-1640 culture medium and Matrigel (available from Corning Inc.), and then subcutaneously transplanted into 6-week-old female NOD/scid mice (available from CLEA Japan, Inc.). The test compound was dispersed in a solvent (0.5% aqueous methylcellulose solution), and from the time when tumor engraftment was visually confirmed, the test compound was orally administered to mice at a dose of 2.5 to 10 mg/kg once a day for 10 to 12 days. A solvent administration group to which a 0.5% aqueous methylcellulose solution was administered was provided as a negative control. The tumor diameter was measured over time and the tumor volume was calculated. The tumor volume was calculated by measuring the major axis and the minor axis of the tumor and using the following expression. Tumor volume (mm^3)=[major axis (mm)×minor axis (mm)×minor axis (mm)]/2
T/C (%) was calculated from the average tumor volume of each group by the following expression, and the drug efficacy was evaluated. T/C (%)=(average tumor volume of drug-administered group)/(average tumor volume of solvent-administered group)×100%

T1 sequence (Q02127 31-395): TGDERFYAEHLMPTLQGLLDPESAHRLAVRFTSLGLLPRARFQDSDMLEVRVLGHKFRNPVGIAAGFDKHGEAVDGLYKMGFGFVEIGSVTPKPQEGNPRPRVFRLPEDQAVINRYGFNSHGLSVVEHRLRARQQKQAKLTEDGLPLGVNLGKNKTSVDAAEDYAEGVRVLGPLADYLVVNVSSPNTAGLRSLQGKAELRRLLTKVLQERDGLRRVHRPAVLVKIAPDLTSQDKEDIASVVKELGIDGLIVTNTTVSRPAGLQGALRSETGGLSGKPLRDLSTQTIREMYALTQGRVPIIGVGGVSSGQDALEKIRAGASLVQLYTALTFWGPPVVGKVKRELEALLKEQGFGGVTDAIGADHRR

Row | IC50 (recombinant human DHODH) | GI50 [1] | SMILES | tumor growth inhibition rate (T/C from tumor volume) (HL60 subcutaneous tumor)
1 | < 10 nM | < 100 nM | CS(=O)(=O)NC(=O)c1nc(C2CC2)cnc1Nc1cccc(C2=CCOCC2)c1OCC(F)(F)F [Example 1-2, 6-cyclopropyl-3-((3-(3,6-dihydro-2H-pyran-4-yl)-2-(2,2,2-trifluoroethoxy)phenyl)amino)-N-(methylsulfonyl)pyrazine-2-carboxamide] | excellent tumor growth inhibition rate
2 | < 10 nM | < 100 nM | CS(=O)(=O)NC(=O)c1nc(C2CC2)cnc1Nc1cccc(C2CCOCC2)c1OCC(F)(F)F [Example 3-30] | excellent tumor growth inhibition rate
3 | < 10 nM | < 100 nM | N#Cc1ccc(-c2cccc(Nc3ncc(C4CC4)nc3C(=O)NS(N)(=O)=O)c2OCC(F)(F)F)cc1 [Example 3-41] | excellent tumor growth inhibition rate
4 | 10 to 100 nM | 100 to 1000 nM | N#Cc1ccc(-c2cc(F)cc(Nc3ncc(C4CC4)nc3C(=O)NS(N)(=O)=O)c2OC(F)F)cc1 [Example 3-54] | –
5 | 10 to 100 nM | 100 to 1000 nM | CS(=O)(=O)NC(=O)c1nc(C2CC2)cnc1Nc1cc(F)cc(-c2ccc(C#N)cc2)c1OC(F)F [Example 3-55] | –
6 | < 10 nM | < 100 nM | CS(=O)(=O)NC(=O)c1nc(C2CC2)cnc1Nc1cccc(-c2ccc(F)cc2)c1OCC(F)(F)F [Example 3-56] | –
7 | < 10 nM | < 100 nM | CCOc1c(Nc2ncc(C3CC3)nc2C(=O)NS(C)(=O)=O)cccc1C1=CCOCC1 [Example 3-57] | –
8 | < 10 nM | < 100 nM | CCOc1ccc(Nc2ncc(C3CC3)nc2C(=O)NS(C)(=O)=O)c(OCC)c1C1=CCOCC1 [Example 3-58] | –
9 | 10 to 100 nM | ≥ 1000 nM | CCOc1c(C2=CCOCC2)ccc(F)c1Nc1ncc(C2CC2)cc1C(=O)NS(C)(=O)=O [Example 3-59] | –
10 | < 10 nM | < 100 nM | CCOc1c(Nc2ncc(C3CC3)cc2C(=O)NS(C)(=O)=O)ccc(F)c1C1=CCOCC1 [Example 3-60] | –
11 | < 10 nM | 100 to 1000 nM | CS(=O)(=O)NC(=O)c1cc(C2CC2)ncc1Nc1cccc(C2=CCOCC2)c1OCC(F)(F)F [Example 3-61] | –
12 | 10 to 100 nM | 100 to 1000 nM | C[C@H](Oc1c(Nc2ncc(C3CC3)nc2C(=O)NS(C)(=O)=O)cccc1C1=CCCOC1)C(F)(F)F [Example 3-62] | –
13 | 10 to 100 nM | ≥ 1000 nM | C[C@H](Oc1c(Nc2nnc(C3CC3)cc2C(=O)NS(C)(=O)=O)cccc1C1CCOCC1)C(F)(F)F [Example 3-63] | –
14 | 10 to 100 nM | 100 to 1000 nM | C[C@H](Oc1c(Nc2ccc(C3CC3)cc2C(=O)NS(C)(=O)=O)ccnc1C1=CCOCC1)C(F)(F)F [Example 3-64] | –
15 | < 10 nM | 100 to 1000 nM | CC(C)c1cnc(Nc2cccc(C3=CCOCC3)c2OCC(F)(F)F)c(C(=O)NS(C)(=O)=O)n1 [Example 3-65] | –
16 | < 10 nM | 100 to 1000 nM | CCc1cnc(Nc2cccc(C3=CCOCC3)c2OCC(F)(F)F)c(C(=O)NS(C)(=O)=O)n1 [Example 3-66] | –
17 | 10 to 100 nM | 100 to 1000 nM | Cc1cnc(Nc2cccc(C3=CCOCC3)c2OCC(F)(F)F)c(C(=O)NS(C)(=O)=O)n1 [Example 3-67] | –
